# Assay results as given in patent US20110046223A1, “TREATMENT OF NEUROFIBROMATOSIS” (RAMOT AT TEL-AVIV UNIVERSITY LTD., priority 2006, published 2011).
# Columns and labels:
# Assay type in all cases: cell-based, human
# [1] = test system: ST88-14, 90-8, T265P21 and non-NF-1 STS26T cells; test: cell growth, photomicrographs of control and FTS-treated cells; settings: 50 μM FTS, two days
# Method: The human NF-1 MPNST cell lines ST88-14, T265P21 and 90-8 and the non-NF-1 human MPNST cell line STS26T were obtained from Dr. Nancy Ratner. T265P21, 90-8, and ST88-14 cells were maintained in RPMI/15% fetal calf serum (FCS) medium and STS26T cells were maintained in DMEM/10% FCS, as described in Weisz, B., et al., supra. Cells were plated at a density of 1×10^6 cells per 10-cm plate for biochemical and immunoblotting assays, 2.5×10^3 cells/well in 24-well plates for cell-growth assays, or on glass cover slips (5×10^4 cells per 35-mm dish) for labeling of actin cytoskeletal elements. The cells were incubated for 24 hours, treated with the indicated concentration of FTS or with the vehicle (0.1% DMSO) (control) for the times specified in each of the experiments, and then subjected to the various assays as described below. The effect of FTS on cell growth was estimated by direct counting of cells collected from each well, as described in Weisz, B., et al., supra.
# To determine the effects of the Ras inhibitor FTS on the growth rates of the NF-1 cell lines ST88-14, 90-8, T265P21 and the non-NF-1 STS26T cells, the cells were grown for two days in the absence and in the presence of 50 μM FTS, and then photomicrographed. […] Additionally, cells were grown for three days and then detached, collected, and counted as described in Methods to determine dose-dependent inhibition by FTS.
# [2] = test system: phospho-Akt; test: steady-state phospho-Akt, Western immunoblotting
# Method: (§1) Unless otherwise indicated, cells were lysed 48 hours after being treated with lysis buffer, as described in Haklai, et al., supra. […] Protein bands were visualized by ECL and quantified by densitometry with Image Master VDS-CL (Amersham) using TINA 2.0 software (Ray Tests). To obtain reliable comparisons between replicated experiments for statistical analysis, a standardization procedure was used, in which the density of each given protein band as recorded with its specific Ab, was normalized. […] The standard average density was defined as 1.0, and each of the individually determined bands was related to this value. […] Actin cytoskeletal elements were labeled with rhodamine-phalloidin, and digital fluorescence images were collected on a Zeiss LSM 510 confocal microscope fitted with fluorescein and rhodamine filters, as described in Gana-Weisz, M., et al., supra.
# Next, to determine whether down-regulation of active Ras by FTS was accompanied by inhibition of Ras signaling, the effect of FTS on steady-state levels of phospho-ERK, phospho-Akt, and RalA-GTP as read-outs of the three prominent Ras pathways, Ras/Raf/MEK/ERK, Ras/PI3K/Akt, and Ras/RalGEF/RalA, respectively, was examined. […]
# [3] = test system: phospho-ERK; test: serum-stimulated phospho-ERK, kinetic study
# Method: as §1
# (§2) First, the time courses of serum-stimulated GTP loading of Ras and serum-stimulated activation of signals downstream of Ras were determined. […]
# [4] = test system: phospho-Akt; test: serum-stimulated phospho-Akt, kinetic study
# Method: as §1, §2
# [5] = test system: Ras, ERK, or Akt; test: total Ras, ERK, Akt in serum-stimulation experiment; settings: STS26T cells, serum-stimulation conditions
# Method: as §1, §2
# [6] = STS26T cells, serum-starved 24 hours, stimulated with 10% serum
# [7] = all NF-1 cell lines (T265P21, ST88-14, 90-8)
smiles,measurement,setting,value
"CC(C)=CCC/C(C)=C/CC/C(C)=C/CSc1ccccc1C(=O)O [FTS, S-farnesylthiosalicylic acid]",cell death,[1],no significant cell death
same,cell number (photomicrographs),[1],drug-induced reduction in cell number
same,steady-state phospho-Akt,[2]; all NF-1 cell lines,significant reduction
same,increase in phosphor-Akt,"[2]; non-NF-1 STS26T cells, steady state",10%-20%
same,serum-stimulated increase in phospho-ERK,[3]; [6],inhibited
same,serum-stimulated increase in phosphor-ERK,[3]; [7],reduced
same,serum-stimulated increase in phospho-Akt,[4]; [6],inhibited
same,serum-stimulated increase in phospho-Akt,[4]; [7],reduced
same,"total amounts of Ras, ERK, or Akt",[5],no effect
